Test results taken from patent publication US20260373134A1, “INHIBITORS OF DYRK1A” (Beth Israel Deaconess Medical Center, Inc., priority 2023, published 2026).
Read-outs that look alike come from different tables or passages of the source.

Legend:
[1] = target: T1, Tau phosphorylation (human DYRK1A and Tau) in HEK293 cells (Homo sapiens, UniProt Q13627); assay: Kinase cellular assay: p-Tau levels in HEK293 cells expressing full-length human DYRK1A and Tau; assay type: cell-based; details: Table 1a
T1 construct: p-Tau ELISA
Experimental: (§1) Methods: a competitive binding assay was used as the primary screen to measure the binding affinity (KD) to DYRK1A. Selectivity against DYRK1B/2 as well as the related CLK1-4 was determined by comparison of the KD in each of the enzymes. Cellular activity of representative compounds was obtained by measuring the p-Tau levels in HEK293 cells expressing human full-length DYRK1A and Tau.
Kinase Cellular Assay: HEK293 human embryonic kidney cells were transiently co-transfected with vectors encoding full-length human DYRK1A and Tau. Cells were dispensed into 96-well plates at a number previously determined by cell titration and signal optimization for the DYRK1A assay. Compounds were diluted to 200× final assay concentration in DMSO. Eight 3-fold or 4-fold serial dilutions were prepared for each compound in 100% DMSO. Compounds were then diluted in tissue culture medium to 10× final assay concentration and 5% DMSO. Compounds were added to the cells in 96-well plates (10-fold dilution in medium) for a final concentration of 1× compound and 0.5% DMSO. For positive (high signal) controls, cells were treated with 0.5% DMSO alone. For negative (low signal) controls, cells were treated with 20 μM harmine including 0.5% DMSO final concentration. Cells were incubated with compound at 37 °C for 2 hours. Cells were lysed, and lysates were transferred to an ELISA plate that had been previously coated with antibody to capture the substrate (human Tau). Plates were washed then incubated with an antibody to detect phosphorylation of Tau. Plates were washed then incubated with HRP-linked secondary antibody. Plates were washed, then HRP substrate was added. Absorbance was read at 450 nm. Percent inhibition values were calculated from absorbance readings based on positive and negative control values, and according to the following formula: (% INH=((positive control−sample)/(positive control−negative control))[…]. Z′ values were calculated based on the following formula: 1−[(3×standard deviation of positives+3×standard deviation of negatives)/(average positive−average negative)]. Percent inhibition values were plotted vs. the log of compound concentrations utilizing GraphPad Prism software. IC50s were determined after utilizing sigmoidal dose response curve fitting to generate the curves.

DYRK1A [2] = target: T2, DYRK1A (Homo sapiens, UniProt Q13627); assay: Competitive binding assay, KD to DYRK1A
T2 construct: T7 phage (kinase-tagged T7 phage), or a DNA tag for qPCR if produced in HEK-293; made in house; host or cells: E. coli (BL21-derived, T7 phage) for most kinases, HEK-293 for the remaining ones
Experimental: as §1
(§2) Kinase assays. For most assays, kinase-tagged T7 phage strains were prepared in an E. coli host derived from the BL21 strain. E. coli were grown to log-phase and infected with T7 phage and incubated with shaking at 32 °C until lysis. The lysates were centrifuged and filtered to remove cell debris. The remaining kinases were produced in HEK-293 cells and subsequently tagged with DNA for qPCR detection. Streptavidin-coated magnetic beads were treated with biotinylated small molecule ligands for 30 minutes at room temperature to generate affinity resins for kinase assays. The liganded beads were blocked with excess biotin and washed with blocking buffer (SeaBlock (Pierce), 1% BSA, 0.05% Tween 20, 1 mM DTT) to remove unbound ligand and to reduce non-specific binding. […] Test compounds were prepared as 111× stocks in 100% DMSO. Kas were determined using an 11-point 3-fold compound dilution series with three DMSO control points. All compounds for Kd measurements are distributed by acoustic transfer (non-contact dispensing) in 100% DMSO. The compounds were then diluted directly into the assays such that the final concentration of DMSO was 0.9%. All reactions performed in polypropylene 384-well plate. Each was a final volume of 0.02 mL. The assay plates were incubated at room temperature with shaking for 1 hour and the affinity beads were washed with wash buffer (1×PBS, 0.05% Tween 20). The beads were then re-suspended in elution buffer (1×PBS, 0.05% Tween 20, 0.5 μM non-biotinylated affinity ligand) and incubated at room temperature with shaking for 30 minutes. The kinase concentration in the eluates was measured by qPCR.

DYRK1A [3] = target: T2, DYRK1A; assay: Kinase assay, % inhibition at fixed concentrations (Table 1b); assay type: binding; details: for inhibition at 10 µM: read-out: % inh at 10 μM
Experimental: as §1, §2

IL-17 = assay: T-cell inflammation inhibition assay (anti-CD3 stimulated PBMCs), IL-17; assay type: cell-based; details: Homo sapiens, PBMC, read-out: % inh at 5 μM IL17
Experimental: (§3) T-cell Inflammation Inhibition Assay Protocol: Day 1, High binding plates were coated with anti-CD3 (clone UCHT-1, 2 μg/mL) and isotype IgG1 using PBS 1× and incubated overnight at 4 °C. Day 2: Cryopreserved PBMCs were drip thawed and diluted to the appropriate density and seeded into U bottom 96-well polypropylene plates (1.2×10^5 cells per well) with 228 μL per well of culture medium (RPMI 1640, 10% heat-inactivated FBS, 1% penicillin/streptomycin, 2 mM L-glutamine). Cells were incubated at 37 °C, 5% CO2 for 1 hour prior to the addition of test compounds. Test compounds were solubilized in DMSO and further diluted to 20× with cell culture medium. Compounds were added to the PBMCs in volumes of 12 μL (1×) in triplicate and incubated for 1 hour at 37 °C, 5% CO2. For reference compound, 12 μL of dexamethasone (100 nM) was added to the control wells according to the plate map and incubated for 1 hour at 37 °C, 5% CO2. After 1 hour incubation, 200 μL of cells (1×10^5) treated with test compounds or controls were transferred to the anti-CD3 coated plates and incubated for 24 hours at 37 °C, 5% CO2, For positive and negative controls, transferred 200 μL (1×10^5) of cells to the coated plate with anti-CD3 or isotype IgG1. Plates were centrifuged at 200×g for 10 minutes. Cell culture supernatants were collected and stored at −80 °C until needed for analysis. Cytokine levels in each sample were determined using Luminex methodology, per the manufacturer's protocol, Luminex assessment of cytokine levels in cell culture supernatants in tissue culture medium, was performed per manufacturer's protocol using the Human Cytokine/Chemokine Magnetic bead panel from Millipore Sigma (catalogue No. HCYTOMAG-60K) with standards range 3.2, 16, 80, 400, 2,000, 10,000 pg/mL. Cytokines Measured: The following cytokines were measured for a complete cytokine response profile. Human panel, T cell (neat): IL-2, IL-17, […].

IL-2 = assay: T-cell inflammation inhibition assay (anti-CD3 stimulated PBMCs), IL-2; assay type: cell-based; details: Homo sapiens, PBMC, read-out: % inh at 5 μM IL2
Experimental: as §3

INFg = assay: T-cell inflammation inhibition assay (anti-CD3 stimulated PBMCs), IFN gamma; assay type: cell-based; details: Homo sapiens, PBMC, read-out: % inh at 5 μM INFg
Experimental: as §3

Row | Compound | IC50 [1] [nM] | Kd (DYRK1A [2]; read-out: KD) [nM] | Kd (DYRK1A [2]; read-out: KD (bound)) [nM] | inhibition at 10 µM (DYRK1A [3]) [%] | inhibition at 5 µM (IL-17) [%] | inhibition at 5 µM (IL-17; second value) [%] | inhibition at 5 µM (IL-2) [%] | inhibition at 5 µM (IL-2; second value) [%] | inhibition at 5 µM (INFg) [%] | other results
1 | Cc1cc(-c2ccc3[nH]c(NC(=O)NCC4(C)COC4)nc3c2)ccn1 [Compound 6, 1-((3-Methyloxetan-3-yl)methyl)-3-(5-(2-methylpyridin-4-yl)-1H-benzo[d]imidazol-2-yl)urea] | 827 | – | – | – | 9.3 | 7.3 | 38.9 | 35.8 | 30 | –
2 | O=C(Nc1nc2cc(-c3cccnc3)ccc2[nH]1)OCC1COC1 [Compound 7, Oxetan-3-ylmethyl (5-(pyridin-3-yl)-1H-benzo[d]imidazol-2-yl)carbamate] | – | – | – | – | – | – | 36.9 | 43.4 | 24.4 | –
3 | O=C(Nc1nc2cc(-c3ccncc3)ccc2[nH]1)OCC1COC1 [Compound 10, Oxetan-3-ylmethyl (5-(pyridin-4-yl)-1H-benzo[d]imidazol-2-yl)carbamate] | 26 | – | – | – | 35 | 30.4 | 76.1 | 59.8 | 57.5 | inhibition at 5 µM (INFg; second value): 39.9%
4 | CC1(CNC(=O)Nc2nc3cc(-c4ccncc4)ccc3[nH]2)COC1 [Compound 11, 1-((3-Methyloxetan-3-yl)methyl)-3-(5-(pyridin-4-yl)-1H-benzo[d]imidazol-2-yl)urea] | – | 0.33 | < 1 | – | – | – | – | – | – | –
5 | Cc1cc(-c2ccc3[nH]c(NC(=O)OCC4(C)COC4)nc3c2)ccn1 [Compound 12, (3-methyloxetan-3-yl)methyl (5-(2-methylpyridin-4-yl)-1H-benzo[d]imidazol-2-yl)carbamate] | – | 0.14 | < 1 | – | – | – | – | – | – | –
6 | COC(=O)Nc1nc2cc(OC)ccc2[nH]1 [Compound 17, Methyl (5-methoxy-1H-benzo[d]imidazol-2-yl)carbamate] | – | – | – | 69 | – | – | – | – | – | –
7 | COc1ccc2[nH]c(N)nc2c1 [Compound 18, 5-Methoxy-1H-benzo[d]imidazol-2-amine] | – | – | – | 11 | – | – | – | – | – | –

Second part, led by results:

Row | IC50 [1] [nM] | Kd (DYRK1A [2]; read-out: KD) [nM] | Kd (DYRK1A [2]; read-out: KD (bound)) [nM] | inhibition at 10 µM (DYRK1A [3]) [%] | Compound | inhibition at 5 µM (IL-17) [%] | inhibition at 5 µM (IL-17; second value) [%] | inhibition at 5 µM (IL-2) [%] | inhibition at 5 µM (IL-2; second value) [%] | inhibition at 5 µM (INFg) [%] | other results
8 | 37 | 0.17 | < 1 | 100 | CC1(COC(=O)Nc2nc3cc(-c4ccncc4)ccc3[nH]2)COC1 [Compound 1, (3-methyloxetan-3-yl)methyl (5-(pyridin-4-yl)-1H-benzo[d]imidazol-2-yl)carbamate] | – | – | – | – | – | inhibition at 1 µM (DYRK1A [3]): 100%; inhibition at 0.1 µM (DYRK1A [3]; read-out: % inh at 0.1 μM): 100%
9 | 280 | 0.72 | < 1 | – | COC(=O)Nc1nc2cc(-c3ccnc(C)c3)ccc2[nH]1 [Compound 2, Methyl (5-(2-methylpyridin-4-yl)-1H-benzo[d]imidazol-2-yl)carbamate] | 22.8 | 35.9 | 46.5 | 42.3 | 31.4 | inhibition at 5 µM (INFg; second value): 11.5%
10 | 55 | 0.33 | < 1 | – | Cc1cc(-c2ccc3[nH]c(NC(=O)OCC4COC4)nc3c2)ccn1 [Compound 5, Oxetan-3-ylmethyl (5-(2-methylpyridin-4-yl)-1H-benzo[d]imidazol-2-yl)carbamate] | 47.8 | 51.8 | 78.2 | 59.3 | 58.8 | inhibition at 5 µM (INFg; second value): 46%
11 | – | – | – | 51 | COc1ccc2[nH]c(NC(=O)OCCN(C)C)nc2c1 [Compound 19, 2-(Dimethylamino)ethyl (5-methoxy-1H-benzo[d]imidazol-2-yl)carbamate] | – | – | – | – | – | –
12 | – | – | – | 96.4 | COc1ccc2[nH]c(NC(=O)OCC3(C)COC3)nc2c1 [Compound 20, (3-Methyloxetan-3-yl)methyl (5-methoxy-1H-benzo[d]imidazol-2-yl)carbamate] | – | – | – | – | – | inhibition at 1 µM (DYRK1A [3]): 63%
13 | – | – | – | 69 | COc1ccc2[nH]c(NC(=O)OCc3cccc(F)c3)nc2c1 [Compound 21, 3-Fluorobenzyl (5-methoxy-1H-benzo[d]imidazol-2-yl)carbamate] | – | – | – | – | – | –
